Data set [1] relates to Pneumocystis carinii. As to the kind of experiment: Anti-Pneumocystis carinii pneumonia activity in immunosuppressed rat model. The class given is in vivo.
The test system of data set [2] is Pneumocystis carinii. The description is as above. The class given is in vivo. The method, then: (§1) In the examples which follow, melting points were recorded using a Thomas-Hoover (Uni-Melt) capillary melting point apparatus and were uncorrected. TLC analysis was carried out on silica gel 60 F254 pre-coated aluminum sheets (0.20 mm layer thickness) (E. Merck of Whitehouse Station, N.J.) and detected under UV light. IR spectra were recorded using Perkin-Elmer Model 337 spectrometer sold by Perkin-Elmer of Norwalk, Conn. ^1H and ^13C NMR spectra were recorded employing a Varian GX400 or a Varian Unityplus 300 spectrometer (both sold by Varian of Palo Alto, Calif.) and chemical shifts (δ) are in ppm relative to TMS as internal standard. Mass Spectra were recorded on a VG Analytical 70-SE spectrometer (Georgia Institute of Technology, Atlanta, Ga.). IR spectra were recorded using a Perkin-Elmer 2000 instrument. […] All chloroformates were purchased from Aldrich Chemical Co. of St. Louis, Mo. Other chemicals and solvents were purchased from either Aldrich or Fischer Scientific of Houston, Tex. […] See Baijic, M., et al., Heterocycl. Commun., 1996, 2, pp. 135-140; Das, B. P., J. Med. Chem. 1977, 20, pp. 531-536; and Boykin, D. W., et al., Bioorg. Med. Chem Lett., 1996, 6, pp. 3017-3020. Anti-Pneumocystis carinii pneumonia activity screening was carried out according to published methods. See Jones, S. K. et al., Antimicrob. Agents Chemother., 1990, 34, pp. 1026-1030; Hall, J. E., et al., Antimicrob. Agents Chemother., 1998, 42, pp. 666-674; and Tidwell, R. R., et al., J. Med. Chem., 1990, 33, pp. 1252-1257. Compounds were routinely tested orally at 33 μmol/kg/day and intravenously at 22 μmol/kg/day. Saline- and pentamidine treated groups of rats were included as negative and positive controls, respectively.
The source holds these as a separate data set.

A short description of data set [3]: Toxicity observed in rats of the anti-PCP screening. Conditions: rat. The method, then:
as §1

For the molecule `NC(=NC(=O)OCc1ccccc1)c1ccc(-c2ccc(-c3ccc(C(N)=NC(=O)OCc4ccccc4)cc3)o2)cc1` [Compound 5, 2,5-bis[4-(N-benzyloxycarbonyl)amidinophenyl]furan], the figures for the “Cysts/g of lung (% of control)” value with Pneumocystis carinii [1] (iv @ 11.0 μmol/kg/day) and with Pneumocystis carinii [2] (Oral @ 33.0 μmol/kg/day) were 0.03 ± 0.02 % of control and 18.09 ± 9.16 % of control, respectively.

Turning to `Cc1oc(=O)oc1COC(=O)N=C(N)c1ccc(-c2ccc(-c3ccc(C(N)=NC(=O)OCc4oc(=O)oc4C)cc3)o2)cc1` [Compound 6, 2,5-bis{4-[N-(5-methyl-2-oxo-1,3-dioxol-4-ene-1-yl)methoxycarbonyl]amidinophenyl}furan], the Toxicity in data set [3] (Oral @ 33.0 μmol/kg/day) and in data set [3] (iv @ 22.0 μmol/kg/day) was 0 in each case. The “Cysts/g of lung (% of control)” value in the data set on Pneumocystis carinii [2] (Oral @ 33.0 μmol/kg/day) is given as 18.73 ± 11.87 % of control; with Pneumocystis carinii [2] (iv @ 22.0 μmol/kg/day), 0.02 ± 0.01 % of control.

Regarding `COC(=O)NC(=N)c1ccc(-c2ccc(-c3ccc(C(=N)NC(=O)OC)cc3)o2)cc1` [Compound 2, 2,5-Bis[4-(N-methoxycarbonyl)amidinophenyl]furan], the Toxicity in data set [3] (Oral @ 33.0 μmol/kg/day) and in data set [3] (iv @ 22.0 μmol/kg/day) was 0 each time. Moreover, the figures for the “Cysts/g of lung (% of control)” value in the data set on Pneumocystis carinii [2] (Oral @ 33.0 μmol/kg/day) and with Pneumocystis carinii [2] (iv @ 22.0 μmol/kg/day) were 49.68 ± 20.50 % of control and 6.91 ± 6.01 % of control, respectively.

As to `[H]/N=C(\N)c1ccc(-c2ccc(-c3ccc(/C(N)=N/[H])cc3)o2)cc1` [Compound 1, 2,5-Bis(4-amidinophenyl)furan, reference compound], the figures for the “Cysts/g of lung (% of control)” value with Pneumocystis carinii [1] (Oral @ 39.8 μmol/kg/day) and in the data set with Pneumocystis carinii [1] (iv @ 13.3 μmol/kg/day) were 44.52 ± 13.30 % of control and 0.83 ± 0.36 % of control, respectively. In addition, the Toxicity in data set [3] (Oral @ 39.8 μmol/kg/day) and in data set [3] (iv @ 13.3 μmol/kg/day) was 0 throughout.

Turning to “2,5-bis[4-(N-2,2,2-trichloroethoxycarbonyl)amidinophenyl]furan [Compound 3]”, the Toxicity in data set [3] (Oral @ 33.0 μmol/kg/day) and in data set [3] (iv @ 22.0 μmol/kg/day) was 0 throughout. The “Cysts/g of lung (% of control)” value in the data set on Pneumocystis carinii [2] (Oral @ 33.0 μmol/kg/day) is 8.59 ± 9.14 % of control; in the data set with Pneumocystis carinii [2] (iv @ 22.0 μmol/kg/day), 1.85 ± 1.79 % of control.

Turning to `CCOC(=O)ON=C(N)c1ccc(-c2ccc(-c3ccc(C(N)=NOC(=O)OCC)cc3)o2)cc1` [Compound 11, 2,5-bis[4(N-ethoxycarbonyloxy)amidinophenyl]furan], the “Cysts/g of lung (% of control)” value was 1.66 ± 0.58 % of control in the data set on Pneumocystis carinii [1] (iv @ 34.7 μmol/kg/day) and 96.90 ± 48.48 % of control with Pneumocystis carinii [2] (Oral @ 33.0 μmol/kg/day). Further, the Toxicity in data set [3] (Oral @ 33.0 μmol/kg/day) and in data set [3] (iv @ 34.7 μmol/kg/day) was 0 throughout.

`CCSC(=O)N=C(N)c1ccc(-c2ccc(-c3ccc(C(N)=NC(=O)SCC)cc3)o2)cc1` [Compound 4, 2,5-bis[4-(N-thioethylcarbonyl)amidinophenyl]furan]: the Toxicity in data set [3] (Oral @ 33.0 μmol/kg/day) and in data set [3] (iv @ 22.0 μmol/kg/day) was 0 in each case. In addition, the “Cysts/g of lung (% of control)” value is given as 19.52 ± 14.22 % of control with Pneumocystis carinii [2] (Oral @ 33.0 μmol/kg/day) and 83.01 ± 43.65 % of control in the data set with Pneumocystis carinii [2] (iv @ 22.0 μmol/kg/day).

As for `COc1ccc(OC(=O)N=C(N)c2ccc(-c3ccc(-c4ccc(C(N)=NC(=O)Oc5ccc(OC)cc5)cc4)o3)cc2)cc1` [Compound 9, 2,5-bis[4-(N-(4-methoxy)phenoxycarbonyl)amidinophenyl]furan], the Toxicity in data set [3] (Oral @ 33.0 μmol/kg/day) and in data set [3] (iv @ 22.0 μmol/kg/day) was 0 each time. Besides, the entries for the “Cysts/g of lung (% of control)” value in the data set on Pneumocystis carinii [2] (Oral @ 33.0 μmol/kg/day) and with Pneumocystis carinii [2] (iv @ 22.0 μmol/kg/day) were 2.10 ± 2.08 % of control and 0.02 ± 0.01 % of control, respectively.

With `N=C(N)c1ccc(OCCCCCOc2ccc(C(=N)N)cc2)cc1` [Pentamidine, 1,5-bis(4-amidinophenoxy)pentane, reference compound], the “Cysts/g of lung (% of control)” value in the data set with Pneumocystis carinii [2] (iv @ 22.0 μmol/kg/day) is 3.06 ± 0.90 % of control.

For `CC(=O)OC(C)OC(=O)NC(=N)c1ccc(-c2ccc(-c3ccc(C(=N)NC(=O)OC(C)OC(C)=O)cc3)o2)cc1` (stereo not drawn) [Compound 10, 2,5-bis[4(1-Acetoxyethoxycarbonyl)amidinophenyl]furan], the figures for the “Cysts/g of lung (% of control)” value in the data set on Pneumocystis carinii [1] (iv @ 11.0 μmol/kg/day) and in the data set with Pneumocystis carinii [2] (Oral @ 33.0 μmol/kg/day) were 1.21 ± 1.02 % of control and 57.16 ± 10.19 % of control, respectively. In data set [3] (Oral @ 33.0 μmol/kg/day), the Toxicity was found to be 0.

Turning to `NC(=NC(=O)Oc1ccccc1)c1ccc(-c2ccc(-c3ccc(C(N)=NC(=O)Oc4ccccc4)cc3)o2)cc1` [Compound 7, 2,5-Bis[4-(N-phenoxycarbonyl)amidinophenyl]furan], the Toxicity in data set [3] (Oral @ 33.0 μmol/kg/day) and in data set [3] (iv @ 22.0 μmol/kg/day) was 0 throughout. Further, the figures for the “Cysts/g of lung (% of control)” value in the data set with Pneumocystis carinii [2] (Oral @ 33.0 μmol/kg/day) and in the data set with Pneumocystis carinii [2] (iv @ 22.0 μmol/kg/day) were 5.70 ± 5.15 % of control and 3.61 ± 1.80 % of control, respectively.

Regarding `NC(=NC(=O)Oc1ccc(F)cc1)c1ccc(-c2ccc(-c3ccc(C(N)=NC(=O)Oc4ccc(F)cc4)cc3)o2)cc1` [Compound 8, 2,5-bis[4-(N-(4-fluoro)phenoxycarbonyl)amidinophenyl]furan], the Toxicity in data set [3] (Oral @ 33.0 μmol/kg/day) and in data set [3] (iv @ 22.0 μmol/kg/day) was 0 throughout. Further, the “Cysts/g of lung (% of control)” value in the data set with Pneumocystis carinii [2] (Oral @ 33.0 μmol/kg/day) is reported as 2.21 ± 0.33 % of control; in the data set on Pneumocystis carinii [2] (iv @ 22.0 μmol/kg/day), 0.02 ± 0.01 % of control.

(Values after patent US6503940B2, “Prodrugs for antimicrobial amidines” (The University of North Carolina at Chapel Hill, priority 1999, dated 2003).)
